Consider 2 compounds from patent US20060094068A1, “Predictive markers in cancer therapy” (priority 2002, published 2006).

Assay [1] has as its system AKT. Nature of the assay: AKT phosphorylation in S1 cells. Type of assay: cell-based, human.
Assay [2] has as its system Erk1/2. Nature of the assay: Erk1/2 activation in BT474 cells (Western blot). Type of assay: cell-based, human. (In general: A western blot detects proteins with antibodies after separation by electrophoresis.)
Assay [3] has as its system AKT. Description: AKT activation in BT474 cells (Western blot). Type of assay: cell-based, human. The following applies: 1 μM, 24 h, with or without EGF.
Assay [4] deals with Erk1/2. Nature of the assay: Erk1/2 activation in HN5 cells (Western blot). Type of assay: cell-based, human.
The subject of assay [5] is AKT. Description: AKT activation in HN5 cells (Western blot). Type of assay: cell-based, human. The note with it: 5 μM, 24 h.
The test system of assay [6] is HN5 cells. Description: Apoptosis and growth arrest in HN5 cells. Type of assay: cell-based, human.
Assay [7] concerns Erk1/2. Nature of the assay: p-Erk1/2 in Hb4a cells (Western blot). Type of assay: cell-based, human. The note with it: 72 h, GW572016 5 μM, Herceptin 10 μg/ml.
A further assay deals with Hb4a cells. Description: Hb4a cell growth, viable cell count by trypan blue exclusion. Type of assay: cell-based, human. The note with it: GW572016 2.5 μM + EGF 50 ng/ml, 72 h. The method, then:
Exponentially growing Hb4a cells were cultured in 35 mm petri dishes with serum-free medium containing 1.5% BSA. […] Viable cells were counted after 72 h using trypan blue exclusion.

In assay [8] the test system is Erk1/2. Description: p-Erk1/2 in HN5 tumor xenografts (Western blot). Type of assay: in vivo, CD-1 nude mice. As to the method:
(§1) HN5 cells were grown in DMEM supplemented with 10% fetal bovine serum, sodium pyruvate and L-glutamine at 37° C. in a 95/5% air/CO2 atmosphere. […] Cells (2×10^6/mouse) in 0.2 ml were injected into the right flank of CD-1 nude mice. Female CD-1 nude mice were acquired from Charles River Laboratories. Mice were maintained in filter-topped cages in an aseptic environment with laminar flow filtered ventilation. […] Tumors were biopsied pre-treatment and 4 hours after the last dose. All animal surgery was conducted under aseptic conditions. For the initial biopsy, mice were anesthetized with isofluorane inhalation. The skin over the tumor was disinfected with iodine. A small hemostat was used to tease away the skin from the tumor, and scissors were used to make a 1 cm incision over the tumor. A scalpel and forceps were used to remove approximately 100 mg of tumor. The tumor was then frozen in liquid nitrogen. Wound clips were used to close the incision. The anesthetized mice were kept warm until they recovered mobility, usually less than 1-2 minutes. For the terminal biopsy, mice were euthanized with CO2 inhalation, and the remainder of the tumor excised. HN5 tumors were placed on dry ice in vials containing cold isopentane, nd stored at −80° C. prior to study. […]

The test system of assay [9] is AKT. Nature of the assay: p-AKT in HN5 tumor xenografts (Western blot). Type of assay: in vivo, CD-1 nude mice. As to the method:
as §1

The target of assay [10] is T1, erbB2 (Homo sapiens, UniProt P04626). Nature of the assay: Quantitative IHC of erbB2 in HN5 and BT474 xenografts. Type of assay: in vivo, mice. The following applies: 200 mg/kg oral once daily.
T1 sequence (P04626 23-1255): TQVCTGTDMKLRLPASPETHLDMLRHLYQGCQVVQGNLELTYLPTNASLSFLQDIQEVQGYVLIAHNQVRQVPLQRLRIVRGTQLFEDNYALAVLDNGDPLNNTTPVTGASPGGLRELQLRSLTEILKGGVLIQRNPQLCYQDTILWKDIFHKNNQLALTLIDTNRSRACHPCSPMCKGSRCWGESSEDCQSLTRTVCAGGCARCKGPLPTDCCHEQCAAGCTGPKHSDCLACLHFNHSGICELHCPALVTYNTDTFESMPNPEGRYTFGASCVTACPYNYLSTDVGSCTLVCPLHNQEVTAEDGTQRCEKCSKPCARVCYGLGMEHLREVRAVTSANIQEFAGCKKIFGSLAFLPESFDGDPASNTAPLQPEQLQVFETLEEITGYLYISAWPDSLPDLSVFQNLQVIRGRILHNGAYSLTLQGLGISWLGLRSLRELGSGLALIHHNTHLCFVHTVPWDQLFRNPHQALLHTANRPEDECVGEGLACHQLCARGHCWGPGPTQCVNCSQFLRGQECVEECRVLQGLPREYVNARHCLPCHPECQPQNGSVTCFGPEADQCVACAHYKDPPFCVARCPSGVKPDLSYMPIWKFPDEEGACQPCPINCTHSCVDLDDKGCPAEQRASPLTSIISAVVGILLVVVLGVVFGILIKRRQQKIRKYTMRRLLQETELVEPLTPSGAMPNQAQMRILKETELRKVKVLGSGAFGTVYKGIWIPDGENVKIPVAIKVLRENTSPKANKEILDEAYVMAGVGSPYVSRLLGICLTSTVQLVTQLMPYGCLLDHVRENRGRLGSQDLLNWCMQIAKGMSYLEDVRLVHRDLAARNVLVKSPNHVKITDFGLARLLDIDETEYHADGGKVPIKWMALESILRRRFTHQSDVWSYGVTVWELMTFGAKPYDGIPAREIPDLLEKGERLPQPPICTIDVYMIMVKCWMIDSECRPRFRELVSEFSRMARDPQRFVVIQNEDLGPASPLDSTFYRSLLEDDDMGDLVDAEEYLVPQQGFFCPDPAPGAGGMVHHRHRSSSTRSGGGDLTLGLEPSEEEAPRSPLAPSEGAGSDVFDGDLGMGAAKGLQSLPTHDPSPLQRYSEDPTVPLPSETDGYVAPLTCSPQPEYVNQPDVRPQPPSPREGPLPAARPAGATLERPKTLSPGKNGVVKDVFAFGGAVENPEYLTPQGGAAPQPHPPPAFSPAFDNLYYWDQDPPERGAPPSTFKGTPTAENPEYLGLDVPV
Assay [11] concerns Erk1/2. Description: Quantitative IHC of Erk1/2 in tumor xenografts. Type of assay: in vivo, mice. The source says:
DAB (Dako) was used as the chromogen.
Inhibition of erbB2/EGFR p-tyr in turn led to the inhibition of downstream activated, phospho-Erk1/2.

Assay [12] has as its system HN5 cells. The following applies: cited from earlier work.
In assay [13] the target is T1, erbB2. Description: EGF stimulation experiment, p-Tyr/erbB2 in BT474 cells. The following applies: 1 μM, 24 h, serum-free, with or without EGF 50 ng/ml.
In assay [14] the target is T1, erbB2. Nature of the assay: Clinical trial, erbB2 p-tyr and total erbB2 in tumor biopsies (IHC). The following applies: patient 361, 1200 mg/day.
Another assay has as its system solid tumors. Description: Clinical trial, clinical response (RECIST re-staging at eight weeks). The following applies: for Clinical response at 8 weeks: 1200 mg/d.
For assay [15], the system named is Erk1/2. Description: Clinical trial, localisation of total Erk1/2 in tumor biopsies (IHC). The following applies: patient 361, day 21; before treatment nuclear.
From the text: Erk1/2 (1:1200), erbB3 (1:10), heregulin (1:25), and TGFα (1:20) were also immunostained using the BenchMark™ with I-VIEW detection chemistry.
In a further assay the test system is p-AKT. Description: Clinical trial, p-AKT in sequential tumor biopsies (quantitative IHC). The following applies: patient 361, after 21 days of treatment.
The test system of another assay is cyclin D1. Nature of the assay: Clinical trial, cyclin D1 in sequential tumor biopsies (quantitative IHC).
Another assay deals with p-Erk1/2. Description: Clinical trial, p-ERK index in sequential tumor biopsies (quantitative IHC). The note with it: patient 361, day 21.
A further assay deals with S1 cells. Nature of the assay: Cell cycle analysis / apoptosis in S1 cells (propidium iodide flow cytometry). The note with it: 5 μM, 72 h. In general terms: A flow cytometer gives signals particle by particle.
Assay [16] relates to ERK MAP kinases and PKB/Akt. The note with it: SKOV (human ovarian cancer) cells, preincubation; cited from earlier work.
For another assay, the system named is activated MAPK and Ki-67. The note with it: humans, phase I trials, normal skin biopsies before and after administration; cited from earlier work.
Setting [17] is: 72 h, GW572016 500 nM or 1 μM, Herceptin 10 μg/ml.

Entries after “also recorded” stand apart in the source; their conditions may differ.

As to `CS(=O)(=O)CCNCc1ccc(-c2ccc3ncnc(Nc4ccc(OCc5cccc(F)c5)c(Cl)c4)c3c2)o1` [GW572016, N-{3-Chloro-4-[(3-fluorobenzyl)oxy]phenyl}-6-[5-({[2-(methylsulfonyl)ethyl]amino}methyl)-2-furyl]4-quinazolinamine], the “Baseline phosphorylation of AKT” value in the assay on AKT [1] is listed as “inhibits baseline phosphorylation of AKT”. The “EGF stimulation of p-Erk1/2” value in the assay on Erk1/2 [2] (1 μM, 24 h, EGF 50 ng/ml) is reported as “inhibited EGF stimulation of p-Erk1/2”. Besides, the “p-Erk1/2 levels compared with untreated controls” value with Erk1/2 [2] (setting [17]) and in the assay with Erk1/2 [4] (setting [17]) was “inhibited p-Erk1/2” each time. The “p-AKT (Ser 473)” value with AKT [3] is “completely inhibited p-AKT”. The “Downstream p-Erk1/2” value in the assay with Erk1/2 [4] (5 μM, 24 h) is recorded as “inhibited downstream p-Erk1/2”. For the same compound, the p-AKT entry is “inhibits baseline phosphorylation of AKT” with AKT [5]; “little effect” with AKT [9] (10 mg/kg); “inhibited p-Erk1/2 and p-AKT” with AKT [9] (30 mg/kg/dose). In addition, the Growth arrest result with HN5 cells [6] is on record as “growth arrest was seen”. In the assay with Erk1/2 [7], the “Baseline p-Erk” value is “reduced the baseline amount of p-Tyr/erbB2 and p-Erk, effects not reversed by EGF; also recorded: decreased”. Moreover, the “Growth inhibition with concurrent EGF” value with Hb4a cells was “did not reverse”. The p-Erk1/2 entry in the assay with Erk1/2 [8] (10 mg/kg) was “little effect”; in the assay with Erk1/2 [8] (30 mg/kg/dose), “inhibited p-Erk1/2 and p-AKT”. Further, the “Activated erbB2 (IHC)” value at erbB2 [10] is “inhibition of activated EGFR and erbB2 in a dose-dependent manner”. The “erbB2 total protein (IHC)” value on erbB2 [10] is given as “neither EGFR nor erbB2 total protein was affected”. Further, the “Total Erk1/2 protein (IHC)” value in the assay on Erk1/2 [11] is recorded as “unaffected”. Also, the “p-Erk1/2 levels (IHC)” value in the assay on Erk1/2 [11] is reported as “reduced”. Moreover, the “Apoptosis (Rusnak et al.)” value in the assay with HN5 cells [12] is given as “increased only slightly”. Moreover, on erbB2 [13], the “Baseline levels of p-Tyr/erbB2” value was “inhibited baseline levels of p-Tyr/erbB2, an effect not reversed by EGF”. For the same compound, the “Total erbB2 protein” value at erbB2 [14] is “had no effect”. In addition, at erbB2 [14] (day 21), the erbB2 p-tyr entry is on record as “did not inhibit”. For the same compound, the “Clinical response at 8 weeks” value with solid tumors (patient 361, breast) is “partial responses”; in the assay with solid tumors (patient 372, breast) it was “partial responses”. In the assay with solid tumors (patient 364, 1600 mg/day, at day 21 biopsy), the “Sequentially biopsied metastatic lymph node” value was “had reduced in size”. Besides, the “Stable Disease at eight weeks” value in the assay with solid tumors (patients with >70% decrease in pERK index) is given as “Stable Disease: 3/5”. Besides, the “Localisation of total Erk1/2 protein” value in the assay with Erk1/2 [15] was “almost entirely cytoplasmic”. For the same compound, the “Inhibition of p-AKT” value in the assay with p-AKT amounted to 33%. Moreover, the “Inhibition of expressed cyclin D1 protein” value with cyclin D1 (patient 361, day 21) came to 90%. In the assay on cyclin D1 (patient 372, day 21), the “Decrease in cyclin D1” value is 80%. For the same compound, the “Activated Erk1/2 in re-biopsy of metastatic subcutaneous nodule” value with p-Erk1/2 is “completely inhibited; also recorded: completely inactivated”. In the assay with S1 cells, the “Increase in percentage of apoptotic cells vs vehicle controls” value was 23 fold.
`COc1cc2ncnc(Nc3ccc(F)c(Cl)c3)c2cc1OCCCN1CCOCC1` [ZD1839]: the “EGF-induced increases in activation of ERK MAP kinases and PKB/Akt” value in [16] is “block EGF-induced increases in activation of ERK MAP kinases and PKB/Akt”. In addition, in the assay with activated MAPK and Ki-67, the “Expression of activated MAPK and Ki-67 in keratinocytes” value was “decreased expression of both activated MAPK and Ki-67”.
